Data taken from patent publication US9340555B2, “Compounds as tyrosine kinase modulators” (Allergan, Inc., priority 2009, dated 2016).

How the values were obtained:
[1] = target: human VEGF receptor (VEGFR-2) (Homo sapiens (Human), UniProt P35968); test: VEGFR2 Kinase Assay (Enzymic VEGFR2); assay type: biochemical; conditions: His-VEGFR-2 cytoplasmic domain, 3.6 µM ATP
Experimental: VEGFR2 Kinase Assay The cytoplasmic domain of the human VEGF receptor (VEGFR-2) was expressed as a Histidine-tagged fusion protein following infection of insect cells using an His engineered baculovirus. […] Kinase assays were performed in 96 well microtiter plates that were coated overnight with 30 µg of poly-Glu-[…]:1) in 10 mM Phosphate Buffered Saline (PBS), pH 7.2-7.4. The plates were incubated with 1% BSA and then washed four times with PBS prior to starting the reaction. […] Reactions were initiated by the addition 0.5 ng of purified protein. Following a ten minute incubation at 25° C., the reactions were washed four times with PBS containing 0.05% Tween-20. 100 µl of a monoclonal anti-phosphotyrosine antibody-peroxidase conjugate was diluted 1:10000 in PBS-Tween-20 and added to the wells for 30 minutes. Following four washes with PBS-Tween-20, 100 µl of 0-phenylenediamine Dihydrochloride in Phosphate-citrate buffer, containing urea hydrogen peroxide, was added to the wells for 7 minutes as a colorimetric substrate for the peroxidase. […] IC50 values for compound inhibition were calculated directly from graphs of optical density (arbitrary units) versus compound concentration following subtraction of blank values.

VEGFR2 = VEGFR2 (Homo sapiens (Human), UniProt P35968); test: VEGF Stimulated Ca++ Signal In Vitro (Cellular VEGFR2, FLIPR); assay type: cell-based; conditions: HUVEC, VEGF stimulation (5 ng/mL), intracellular calcium
Chain of VEGFR2 (P35968 20-1356): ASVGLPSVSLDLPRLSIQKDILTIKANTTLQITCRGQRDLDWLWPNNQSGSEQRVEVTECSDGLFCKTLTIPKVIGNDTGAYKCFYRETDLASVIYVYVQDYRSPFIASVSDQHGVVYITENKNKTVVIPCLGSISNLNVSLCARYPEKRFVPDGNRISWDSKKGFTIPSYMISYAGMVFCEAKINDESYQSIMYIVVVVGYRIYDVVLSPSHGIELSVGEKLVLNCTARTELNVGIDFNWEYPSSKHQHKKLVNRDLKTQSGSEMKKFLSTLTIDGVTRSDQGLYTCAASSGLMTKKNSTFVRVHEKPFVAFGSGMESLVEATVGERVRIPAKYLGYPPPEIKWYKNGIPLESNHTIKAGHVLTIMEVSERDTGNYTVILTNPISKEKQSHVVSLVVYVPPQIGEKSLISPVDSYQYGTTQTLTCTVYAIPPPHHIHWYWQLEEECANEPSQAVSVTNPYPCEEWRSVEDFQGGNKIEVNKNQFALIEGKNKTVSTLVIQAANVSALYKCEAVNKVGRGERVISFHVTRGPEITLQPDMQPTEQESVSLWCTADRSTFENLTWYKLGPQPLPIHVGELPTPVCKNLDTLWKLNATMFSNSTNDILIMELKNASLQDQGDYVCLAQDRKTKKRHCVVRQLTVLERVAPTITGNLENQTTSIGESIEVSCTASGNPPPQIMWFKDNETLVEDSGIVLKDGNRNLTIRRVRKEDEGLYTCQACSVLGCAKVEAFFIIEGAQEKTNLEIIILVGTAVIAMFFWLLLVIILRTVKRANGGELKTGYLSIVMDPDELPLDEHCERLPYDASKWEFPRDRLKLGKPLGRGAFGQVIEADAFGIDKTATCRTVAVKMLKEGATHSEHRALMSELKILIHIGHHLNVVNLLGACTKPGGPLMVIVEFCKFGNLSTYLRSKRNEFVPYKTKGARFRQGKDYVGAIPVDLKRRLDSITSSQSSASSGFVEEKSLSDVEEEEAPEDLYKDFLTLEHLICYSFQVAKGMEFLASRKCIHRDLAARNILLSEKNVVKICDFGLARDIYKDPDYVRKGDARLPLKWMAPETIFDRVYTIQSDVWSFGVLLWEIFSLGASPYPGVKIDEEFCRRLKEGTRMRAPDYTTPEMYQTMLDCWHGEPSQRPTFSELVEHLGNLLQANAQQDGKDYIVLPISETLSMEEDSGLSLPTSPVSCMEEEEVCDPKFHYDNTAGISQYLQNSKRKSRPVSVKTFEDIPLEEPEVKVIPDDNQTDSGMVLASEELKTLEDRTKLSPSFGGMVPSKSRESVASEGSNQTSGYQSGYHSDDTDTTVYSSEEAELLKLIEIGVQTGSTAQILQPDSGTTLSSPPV

PDGFRβ = PDGFRβ (Homo sapiens (Human), UniProt P09619); test: Enzymic PDGFRβ; assay type: biochemical
Chain of PDGFRβ (P09619 33-1106, species assumed): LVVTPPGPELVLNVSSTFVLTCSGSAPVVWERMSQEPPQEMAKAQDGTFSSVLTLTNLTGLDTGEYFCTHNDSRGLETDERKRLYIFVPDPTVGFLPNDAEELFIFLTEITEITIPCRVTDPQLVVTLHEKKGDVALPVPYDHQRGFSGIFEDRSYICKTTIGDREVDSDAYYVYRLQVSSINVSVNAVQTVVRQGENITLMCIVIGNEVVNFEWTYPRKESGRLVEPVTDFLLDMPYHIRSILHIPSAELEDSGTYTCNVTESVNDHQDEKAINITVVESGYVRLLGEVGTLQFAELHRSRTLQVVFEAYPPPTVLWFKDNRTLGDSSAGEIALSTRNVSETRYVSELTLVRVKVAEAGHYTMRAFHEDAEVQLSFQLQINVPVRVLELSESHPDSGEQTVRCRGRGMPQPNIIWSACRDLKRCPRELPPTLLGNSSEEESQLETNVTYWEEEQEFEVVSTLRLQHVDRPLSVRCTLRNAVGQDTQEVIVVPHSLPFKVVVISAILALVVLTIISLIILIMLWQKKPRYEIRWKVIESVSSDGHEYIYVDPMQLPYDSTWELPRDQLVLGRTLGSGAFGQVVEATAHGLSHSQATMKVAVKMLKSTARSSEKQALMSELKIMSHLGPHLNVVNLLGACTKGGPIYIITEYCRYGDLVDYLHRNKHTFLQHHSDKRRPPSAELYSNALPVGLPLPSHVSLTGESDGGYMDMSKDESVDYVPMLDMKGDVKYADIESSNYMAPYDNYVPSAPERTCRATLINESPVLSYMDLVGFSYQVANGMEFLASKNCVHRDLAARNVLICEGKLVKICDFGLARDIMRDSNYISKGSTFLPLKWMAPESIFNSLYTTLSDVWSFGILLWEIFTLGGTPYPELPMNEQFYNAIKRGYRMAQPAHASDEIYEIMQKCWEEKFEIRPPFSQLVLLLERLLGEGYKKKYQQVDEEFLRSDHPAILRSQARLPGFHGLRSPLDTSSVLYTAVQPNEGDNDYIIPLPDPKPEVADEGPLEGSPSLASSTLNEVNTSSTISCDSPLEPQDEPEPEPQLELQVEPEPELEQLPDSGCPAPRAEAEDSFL

Chain of human VEGF receptor (VEGFR-2) (P35968 786-1356): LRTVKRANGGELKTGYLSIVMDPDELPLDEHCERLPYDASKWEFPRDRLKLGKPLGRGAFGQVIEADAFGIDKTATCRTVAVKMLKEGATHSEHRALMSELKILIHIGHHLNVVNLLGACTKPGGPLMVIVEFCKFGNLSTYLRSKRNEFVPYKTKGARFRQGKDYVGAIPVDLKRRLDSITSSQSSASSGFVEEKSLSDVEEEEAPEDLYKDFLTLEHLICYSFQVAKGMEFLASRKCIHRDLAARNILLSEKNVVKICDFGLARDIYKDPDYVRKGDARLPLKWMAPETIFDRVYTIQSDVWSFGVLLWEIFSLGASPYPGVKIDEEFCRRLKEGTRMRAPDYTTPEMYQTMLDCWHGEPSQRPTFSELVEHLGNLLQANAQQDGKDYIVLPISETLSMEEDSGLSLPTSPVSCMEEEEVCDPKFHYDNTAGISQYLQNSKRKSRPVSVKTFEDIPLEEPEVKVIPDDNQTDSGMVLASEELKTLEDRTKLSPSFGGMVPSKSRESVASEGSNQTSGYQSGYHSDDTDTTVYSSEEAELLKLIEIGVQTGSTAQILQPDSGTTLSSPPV

Compound | IC50 [1] [nM] | IC50 (VEGFR2) [nM] | IC50 (PDGFRβ) [nM]
COC(=O)[C@@H]1C[C@@H](O)CN1CCCNC(=O)c1cc2nccc(Oc3ccc(NC(=O)Nc4cc(C)ccc4F)cc3)c2s1 (relative stereo) [Example 17, methyl rel-(2R,4S)-1-{3-[({7-[4-({[(2-fluoro-5-methylphenyl)amino]carbonyl}amino)phenoxy]thieno[3,2-b]pyridin-2-yl}carbonyl)amino]propyl}-4-hydroxypyrrolidine-2-carboxylate] | 4 |  | 
COC(=O)c1cc2nccc(Oc3ccc(NC(=O)Nc4cc(C)ccc4F)cc3)c2s1 [Compound F1, Methyl 7-[4-({[(2-fluoro-5-methylphenyl)amino]carbonyl}amino)phenoxy]thieno[3,2-b]pyridine-2-carboxylate] | 18 | 2 | 
COC(=O)c1cc2nccc(Oc3cccc(NC(=O)Nc4cc(C)ccc4F)c3)c2s1 [Compound F3, Methyl 7-[3-({[(2-fluoro-5-methylphenyl)amino]carbonyl}amino)phenoxy]thieno[3,2-b]pyridine-2-carboxylate] | 21 | 35 | 
COC(=O)c1cc2nccc(-c3ccc(NC(=O)Nc4cc(C)ccc4F)cc3)c2s1 [Compound F4, Methyl 7-[4-({[(2-fluoro-5-methylphenyl)amino]carbonyl}amino)phenyl]thieno[3,2-b]pyridine-2-carboxylate] | 10000 | 10000 | 
Cc1ccc(F)c(NC(=O)Nc2ccc(-c3ccnc4cc(C(=O)O)sc34)cc2)c1 [Compound F5, 7-[4-({[(2-fluoro-5-methylphenyl)amino]carbonyl}amino)phenyl]thieno[3,2-b]pyridine-2-carboxylic acid] | 10000 | 10000 | 
Cc1ccc(F)c(NC(=O)Nc2ccc(Oc3ccnc4cc(C(=O)NCCC(=O)O)sc34)cc2)c1 [Compound F6, 3-[({7-[4-({[(2-fluoro-5-methylphenyl)amino]carbonyl}amino)phenoxy]thieno[3,2-b]pyridin-2-yl}carbonyl)amino]propanoic acid] | 11 |  | 
Cc1ccc(F)c(NC(=O)Nc2ccc(Oc3ccnc4cc(C(=O)NCCC(=O)O)sc34)cc2F)c1 [Compound F7, 3-[({7-[3-fluoro-4-({[(2-fluoro-5-methylphenyl)amino]carbonyl}amino)phenoxy]thieno[3,2-b]pyridin-2-yl}carbonyl)amino]propanoic acid] | 10 |  | 
Cc1ccc(F)c(NC(=O)Nc2ccc(Oc3ccnc4cc(C(=O)O)sc34)cc2F)c1 [Compound F8, 7-[3-fluoro-4-({[(2-fluoro-5-methylphenyl)amino]carbonyl}amino)phenoxy]thieno[3,2-b]pyridine-2-carboxylic acid] | 11 |  | 
COC(=O)C1CCCN1CCCNC(=O)c1cc2nccc(Oc3ccc(NC(=O)Nc4cc(C)ccc4F)c(F)c3)c2s1 (stereo not shown) [Example 42, methyl 1-{3-[({7-[3-fluoro-4-({[(2-fluoro-5-methylphenyl)amino]carbonyl}amino)phenoxy]thieno[3,2-b]pyridin-2-yl}carbonyl)amino]propyl}pyrrolidine-2-carboxylate] | 6 | 4 | 
Cc1ccc(F)c(NC(=O)Nc2ccc(Oc3ccnc4cc(C(=O)NCCCN5CCCC5)sc34)cc2F)c1 [Example 43, 7-[3-fluoro-4-({[(2-fluoro-5-methylphenyl)amino]carbonyl}amino)phenoxy]-N-(3-pyrrolidin-1-ylpropyl)thieno[3,2-b]pyridine-2-carboxamide] | 3 | 6 | 
Cc1ccc(F)c(NC(=O)Nc2ccc(Oc3ccnc4cc(C(=O)NCCCNC(=O)OC(C)(C)C)sc34)cc2F)c1 [Example 44, tert-butyl {3-[({7-[3-fluoro-4-({[(2-fluoro-5-methylphenyl)amino]carbonyl}amino)phenoxy]thieno[3,2-b]pyridin-2-yl}carbonyl)amino]propyl}carbamate] | 11 | 16 | 
Cc1ccc(F)c(NC(=O)Nc2ccc(Oc3ccnc4cc(C(=O)NCCCN)sc34)cc2F)c1 [Example 45, N-(3-aminopropyl)-7-[3-fluoro-4-({[(2-fluoro-5-methylphenyl)amino]carbonyl}amino)phenoxy]thieno[3,2-b]pyridine-2-carboxamide] | 7 | 10 | 
Cc1ccc(F)c(NC(=O)Nc2ccc(Oc3ccnc4cc(C(=O)N[C@@H](CCC(=O)OC(C)(C)C)C(=O)O)sc34)cc2F)c1 [Example 48, (2S)-5-tert-butoxy-2-[({7-[3-fluoro-4-({[(2-fluoro-5-methylphenyl)amino]carbonyl}amino)phenoxy]thieno[3,2-b]pyridin-2-yl}carbonyl)amino]-5-oxopentanoic acid] | 7 |  | 
Cc1ccc(F)c(NC(=O)Nc2ccc(Oc3ccnc4cc(C(=O)NCCCO)sc34)cc2F)c1 [Example 53, 7-[3-fluoro-4-({[(2-fluoro-5-methylphenyl)amino]carbonyl}amino)phenoxy]-N-(3-hydroxypropyl)thieno[3,2-b]pyridine-2-carboxamide] | 12 |  | 
COC(=O)CC[C@H](NC(=O)c1cc2nccc(Oc3ccc(NC(=O)Nc4cc(C)ccc4F)c(F)c3)c2s1)C(=O)OC [Example 54, dimethyl (2S)-2-[({7-[3-fluoro-4-({[(2-fluoro-5-methylphenyl)amino]carbonyl}amino)phenoxy]thieno[3,2-b]pyridin-2-yl}carbonyl)amino]pentanedioate] | 34 | 4 | 
Cc1ccc(F)c(NC(=O)Nc2ccc(Oc3ccnc4cc(C(=O)N=S(C)(C)=O)sc34)cc2F)c1 [Example 58, N-[dimethyl(oxido)-lambda˜4˜-sulfanylidene]-7-[3-fluoro-4-({[(2-fluoro-5-methylphenyl)amino]carbonyl}amino)phenoxy]thieno[3,2-b]pyridine-2-carboxamide] | 3 |  | 
Cc1ccc(F)c(NC(=O)Nc2ccc(Oc3ccnc4cc(C(=O)N=S(C)(C)=O)sc34)cc2)c1 [Example 61, N-[dimethyl(oxido)-lambda˜4˜-sulfanylidene]-7-[4-({[(2-fluoro-5-methylphenyl)amino]carbonyl}amino)phenoxy]thieno[3,2-b]pyridine-2-carboxamide] | 2 |  | 
COC(=O)c1cc2nccc(Oc3cccc(NC(=O)c4occc4C)c3)c2s1 [Example 71, Methyl 7-{3-[(3-methyl-2-furoyl)amino]phenoxy}thieno[3,2-b]pyridine-2-carboxylate] | 24 |  | 169
CCNC(=O)c1cc2nccc(Oc3cccc(NC(=O)c4occc4C)c3)c2s1 [Example 73, N-ethyl-7-{3-[(3-methyl-2-furoyl)amino]phenoxy}thieno[3,2-b]pyridine-2-carboxamide] | 9 |  | 191
CCN(CC)C(=O)c1cc2nccc(Oc3cccc(NC(=O)c4occc4C)c3)c2s1 [Example 74, N,N-diethyl-7-{3-[(3-methyl-2-furoyl)amino]phenoxy}thieno[3,2-b]pyridine-2-carboxamide] | 27 |  | 424
Cc1ccoc1C(=O)Nc1cccc(Oc2ccnc3cc(C(=O)NCCCO)sc23)c1 [Example 76, N-(3-hydroxypropyl)-7-{3-[(3-methyl-2-furoyl)amino]phenoxy}thieno[3,2-b]pyridine-2-carboxamide] | 11 |  | 146
Cc1ccoc1C(=O)Nc1cccc(Oc2ccnc3cc(C(=O)NCCO)sc23)c1 [Example 77, N-(2-hydroxyethyl)-7-{3-[(3-methyl-2-furoyl)amino]phenoxy}thieno[3,2-b]pyridine-2-carboxamide] | 17 |  | 392
Cc1ccoc1C(=O)Nc1cccc(Oc2ccnc3cc(C(=O)NCCc4nn[nH]n4)sc23)c1 [Example 78, 7-{3-[(3-methyl-2-furoyl)amino]phenoxy}-N-[2-(2H-tetrazol-5-yl)ethyl]thieno[3,2-b]pyridine-2-carboxamide] | 14 |  | 323
Cc1ccoc1C(=O)Nc1cccc(Oc2ccnc3cc(C(=O)OCCCO)sc23)c1 [Example 79, 3-hydroxypropyl 7-{3-[(3-methyl-2-furoyl)amino]phenoxy}thieno[3,2-b]pyridine-2-carboxylate] | 9 |  | 146
Cc1ccoc1C(=O)Nc1cccc(Oc2ccnc3cc(C(=O)OCCO)sc23)c1 [Example 80, 2-hydroxyethyl 7-{3-[(3-methyl-2-furoyl)amino]phenoxy}thieno[3,2-b]pyridine-2-carboxylate] | 17 |  | 212
COCCOC(=O)c1cc2nccc(Oc3cccc(NC(=O)c4occc4C)c3)c2s1 [Example 81, 2-methoxyethyl 7-{3-[(3-methyl-2-furoyl)amino]phenoxy}thieno[3,2-b]pyridine-2-carboxylate] | 19 |  | 273
COC(=O)CNCCCNC(=O)c1cc2nccc(Oc3cccc(NC(=O)c4occc4C)c3)c2s1 [Example 82, Methyl [(3-{[(7-{3-[(3-methyl-2-furoyl)amino]phenoxy}thieno[3,2-b]pyridin-2-yl)carbonyl]amino}propyl)amino]acetate] | 11 |  | 238
